The IC50 is the midpoint of a concentration-inhibition curve. A lower IC50 goes with greater potency. By bioavailability is commonly meant the share of a dose that reaches the circulation, judged against a reference dose that is usually intravenous. The Cmax is the peak of the concentration-time curve. Usually AUC stands for the area under the concentration-time curve, a measure of exposure. The clearance is a measure of how efficiently the substance is removed, as volume per time. Read a low clearance as a low capacity for elimination. As usually defined, the half-life is the time in which the quantity being followed falls by half. Low readings indicate rapid decline, high ones slow decline. The Tmax is the time at which the peak concentration occurs.

Each structure is given as a SMILES string.

One data set concerns THP-1. The data set can be described thus: Inhibition of LPS-induced TNFalpha production in human THP1 cells. It is filed as functional, cell-based.
In data set [1] the target is T1, Mitogen-activated protein kinase 14 (Homo sapiens, UniProt Q16539). The data set can be described thus: Inhibition of human p38-alpha kinase.
T1 sequence (Q16539 whole entry): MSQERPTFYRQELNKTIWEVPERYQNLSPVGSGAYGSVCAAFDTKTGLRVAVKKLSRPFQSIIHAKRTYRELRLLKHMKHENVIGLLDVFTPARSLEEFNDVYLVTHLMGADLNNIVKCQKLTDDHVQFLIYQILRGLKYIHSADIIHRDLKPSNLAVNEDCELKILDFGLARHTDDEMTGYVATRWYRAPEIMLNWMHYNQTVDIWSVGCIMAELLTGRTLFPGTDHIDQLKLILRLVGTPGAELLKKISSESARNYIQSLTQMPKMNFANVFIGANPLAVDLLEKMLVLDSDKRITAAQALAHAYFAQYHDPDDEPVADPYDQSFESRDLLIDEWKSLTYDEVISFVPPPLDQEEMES
Data set [2] can be described thus: Bioavailability in rat at 30 mg/kg, po. The format is ADME, organism-based. As to conditions: in vivo.
A short description of data set [3]: Cmax in rat at 30 mg/kg, po. Also on record: dose 30 mg/kg, route oral. The format is ADME, organism-based. Conditions: in vivo.
Data set [4] can be described thus: AUC in rat at 30 mg/kg, po. It is filed as ADME, organism-based. Also on record: dose 30 mg/kg, route oral. As to conditions: plasma.
Data set [5] is described as follows: Volume of distribution at steady state in rat at 10 mg/kg, iv. The format is ADME, organism-based. Conditions: in vivo, read-out: Vdss. Also on record: dose 10 mg/kg, route intravenous.
Data set [6] deals with T1, Mitogen-activated protein kinase 14. The data set can be described thus: Inhibition of human p38-alpha kinase phosphorylation.
Data set [7] in a line: Clearance in rat at 10 mg/kg, iv. Conditions: in vivo. It is filed as ADME, organism-based. Details: dose 10 mg/kg, route intravenous.
The nature of data set [8]: Half life in rat at 30 mg/kg, po. Details: dose 30 mg/kg, route oral. The format is ADME, organism-based. As to conditions: in vivo.
Data set [9] in a line: Tmax in rat at 30 mg/kg, po. As to conditions: in vivo. The format is ADME, organism-based. Details: dose 30 mg/kg, route oral.

Take `Cc1cccc(-n2nc(C(C)(C)C)cc2NC(=O)C(=O)c2ccc(OCCN3CCOCC3)c3ccccc23)c1`: half-maximal inhibition in the data set on THP-1 (IC50) required 0.34 µM. This counts as sub-micromolar.

As for `Cc1ccc(-n2nc(C(C)(C)C)cc2NC(=O)/C(=N\O)c2ccc(OCCN3CCOCC3)c3ccccc23)cc1`, the IC50 in data set [1] stood at 0.023 µM; in the data set with THP-1 it was 0.023 µM; in [6] it was 0.15 µM. The bioavailability in [2] was determined as 100%. Also, the Cmax in [3] came out at 4.5 µg/mL. Besides, the AUC in data set [4] amounted to 36 µg·h/mL. Further, the Vd in data set [5] is 1.9 L/kg. In data set [7], this molecule had a clearance of 0.9 L/h/kg. For the same molecule, in data set [8], the half-life is 1.4 h. Also, the Tmax in [9] came out at 1 h.

`Cc1ccc(-n2nc(C(C)(C)C)cc2NC(=O)C(=O)c2ccc(OCCN3CCOCC3)c3ccc(Cl)cc23)cc1`: the IC50 in the data set on THP-1 came to 2.6 µM.

In turn, `CC(C)(C)c1cc(NC(=O)C(=O)c2ccc(OCCN3CCOCC3)c3ccccc23)n(-c2cccc(F)c2)n1` had an IC50 with THP-1 of 0.44 µM.

Regarding `Cc1ccc(-n2nc(C(C)(C)C)cc2NC(=O)C(O)c2ccc(OCCN3CCOCC3)c3ccccc23)cc1` (stereo not given), in the data set with THP-1, the concentration for half-maximal inhibition (IC50) came to 0.97 µM.

The molecule `CC(C)(C)c1cc(NC(=O)C(=O)c2ccc(OCCN3CCOCC3)c3ccccc23)n(-c2ccccc2)n1` returned an IC50 in the data set on THP-1 of 2.1 µM.

`CO/N=C(\C(=O)Nc1cc(C(C)(C)C)nn1-c1ccc(C)cc1)c1ccc(OCCN2CCOCC2)c2ccccc12` yielded an IC50 with THP-1 of 1.5 µM.

In the data set with THP-1, `CC(C)(C)c1cc(NC(=O)C(=O)c2ccc(OCCN3CCOCC3)c3ccccc23)[nH]n1` yielded a 50% inhibitory concentration (IC50) of 1.5 µM.

With `Cc1ccc(-n2nc(C(C)(C)C)cc2NC(=O)C(=O)c2ccc(OCCN3CCOCC3)c3ccccc23)cc1C`, in the data set on THP-1, inhibition was half-maximal at 0.45 µM (IC50).

As for `Cc1ccc(-n2nc(C(C)(C)C)cc2NC(=O)C(=O)c2ccc(OCCN3CCOCC3)c3ccccc23)cc1`, the concentration for half-maximal inhibition (IC50) in data set [1] was determined as 0.32 µM; with THP-1 it was 0.44 µM; in data set [6] it was 0.31 µM.

Consider `Cc1ccc(-n2nc(C(C)(C)C)cc2NC(=O)Cc2ccc(OCCN3CCOCC3)c3ccccc23)cc1`, for which the IC50 with THP-1 was 1.4 µM.

Molecule `Cc1ccc(-n2nc(C(C)(C)C)cc2NC(=O)c2n[nH]c3ccccc23)cc1` displayed an IC50 in the data set with THP-1 of 2.9 µM.

For the molecule `Cn1nc(C(C)(C)C)cc1NC(=O)C(=O)c1ccc(OCCN2CCOCC2)c2ccccc12`, the IC50 in data set [1] stood at 0.15 µM; in data set [6], 0.3 µM.

In the data set on THP-1, `Cc1ccc(-n2nc(C(C)(C)C)cc2NC(=O)C(=O)c2ccc(OCCN3CCOCC3)c3ccccc23)cc1F` displayed an IC50 of 0.22 µM.

Regarding `Cc1ccccc1-n1nc(C(C)(C)C)cc1NC(=O)C(=O)c1ccc(OCCN2CCOCC2)c2ccccc12`, the IC50 in the data set with THP-1 turned out to be 1.5 µM.

Regarding `Cc1ccc(-n2nc(C(C)(C)C)cc2NC(=O)Nc2ccc(OCCN3CCOCC3)c3ccccc23)cc1` [DORAMAPIMOD], the IC50 in the data set on THP-1 is 0.013 µM.

Regarding `O=c1ncn2nc(Sc3ccc(F)cc3F)ccc2c1-c1c(Cl)cccc1Cl` [NEFLAMAPIMOD], in the data set with THP-1, the IC50 is 0.039 µM. Against the preceding molecule, the IC50 is about 3-fold higher.

Turning to `C[S+]([O-])c1ccc(-c2nc(-c3ccc(F)cc3)c(-c3ccncc3)[nH]2)cc1` (stereo not given) [SB-203580], in the data set with THP-1, half-maximal inhibition (IC50) was put at 0.016 µM.

Values taken from ChEMBL document CHEMBL1143878, “The design and synthesis of novel alpha-ketoamide-based p38 MAP kinase inhibitors” (Bioorg Med Chem Lett, 2008).
